Values of other authors in US11752185B2, “Powderized cannabis oil” (Hemp Synergistics, priority 2020, dated 2023).

Settings: clinical studies; EPIDIOLEX context: seizures associated with Lennox-Gastaut syndrome or Dravet syndrome

C=C(C)[C@@H]1CCC(C)=C[C@H]1c1c(O)cc(CCCCC)cc1O [CBD, cannabidiol]
therapeutic dose: 10 mg/kg/day
